Laboratory results reported in the supplement of paper PMC12317010.

Assay: collision cross section in nitrogen (drift tube, single-field); higher = larger gas-phase ion size
[1] = ion type: [M+Na], ion source: ESI, ion mode: Positive
[2] = ion type: [M+H], ion source: ESI, ion mode: Positive
[3] = ion type: [M-H], ion source: ESI, ion mode: Negative
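Note: chemical standards at 10 µM analysed by drift tube IMS-QTOF MS in about 3.95 torr nitrogen, mean of duplicate injections differing ≤1%, mass error below 10 ppm.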

Structure (SMILES) | collision cross section in nitrogen [1] [Å²] | collision cross section in nitrogen [2] [Å²] | collision cross section in nitrogen [3] [Å²] | collision cross section in nitrogen (ion type: [M+], ion source: APCI, ion mode: Positive) [Å²]
c1cc(C(c2ccc(OCC3CO3)cc2)c2ccc(OCC3CO3)cc2)ccc1OCC1CO1 (stereo unspecified) | 199.3 | – | – | –
C1CC(COCC2CO2)CCC1COCC1CO1 (stereo unspecified) | 160.1 | – | – | –
C=CC(=O)OCCn1c(=O)n(CCOC(=O)C=C)c(=O)n(CCOC(=O)C=C)c1=O | 184.5 | – | – | –
CC(=O)NC1(c2cccc(F)c2)CCN(CC[C@@]2(c3ccc(Cl)c(Cl)c3)CN(c3ccccc3)C(=O)CO2)CC1 | 250.7 | 243.8 | – | –
CC(C)(CO)COC(=O)C(C)(C)CO | 151.6 | – | – | –
CC(C)CCCCCCCOC(=O)c1ccccc1C(=O)OCCCCCCCC(C)C | 225.8 | – | – | –
CC(C)c1cccc(C(C)C)c1NC(=O)NS(=O)(=O)c1cc(C(C)(C)O)co1 | 207.5 | – | 199.5 | –
CC1(C)CCC(C)(C)c2cc(C(=O)Nc3ccc(C(=O)O)cc3)ccc21 | – | 198.2 | 198 | –
Cc1oc2c(NC(=O)c3c(Cl)cccc3Cl)cccc2c1C(C)(C)O | 190.9 | 186.3 | 191.5 | –
Cc1cc(NC(=O)C(=O)O)cc(C)c1Oc1ccc(O)c2c1CCC2 | – | – | 199.1 | –
Cc1ccc2oc(CN(Cc3ccccc3)C(=O)Nc3c(F)cc(F)cc3F)c(-c3ccc(Cl)cc3)c2c1 | 226.8 | – | 225.2 | –
CC1=NN(c2cccc(S(=O)(=O)O)c2)C(=O)C1 | 161.9 | 161.7 | 156.5 | –
CC1=NN(c2ccc(S(=O)(=O)O)cc2)C(=O)C1 | – | 162.7 | 159.1 | –
CC1COCc2cc3c(cc21)C(C)(C)C(C)C3(C)C (stereo unspecified) | – | – | – | 163.2
CCCc1c(OCCCOc2ccc(OCC(=O)O)cc2)ccc(C(C)=O)c1O | 191.7 | 186.1 | 190.5 | –
CCCCOC(=O)COC(=O)c1ccccc1C(=O)OCCCC | 193.5 | – | – | –
CCN(CC)c1ccc2cc(-c3nc4cc(S(N)(=O)=O)ccc4o3)c(=O)oc2c1 | 219.6 | 205.5 | 218.6 | –
CCN(Cc1cccnc1)C(=O)c1cccc(Cl)c1[C@]1(C)C(=O)N(Cc2ccc(OC)cc2OC)c2ccc(Cl)cc21 | 233.4 | 241.2 | – | –
CC[C@@H]1C[C@H](N(Cc2cc(C(F)(F)F)cc(C(F)(F)F)c2)C(C)=O)c2cc(C(F)(F)F)ccc2N1C(=O)OC(C)C | 233.5 | – | 231.1 | –
CC[C@H](C)[C@@H](C(=O)O)n1sc2ccccc2c1=O | 169.8 | 155.1 | 159.8 | –
CN(C)C(=O)Nc1cccc(OC(=O)NC(C)(C)C)c1 | 175 | – | – | –

Structure (SMILES) | collision cross section in nitrogen [1] [Å²] | collision cross section in nitrogen [2] [Å²] | collision cross section in nitrogen [3] [Å²] | collision cross section in nitrogen (ion type: [M+], ion source: APCI, ion mode: Positive) [Å²]
CNC(=O)ON=C(CSC)C(C)(C)C | 160.6 | – | – | –
CNCc1cc(F)ccc1Oc1ccc(Cl)c(Cl)c1 | – | 173.4 | – | –
CNCc1ccc(NC(=O)c2c[nH]c3c2C(=O)CCC3)cc1 | 182.6 | – | 178.1 | –
COCc1nnc(-c2ccc[n+]([O-])c2)n1-c1c(Cl)c(Cl)cc2[nH]c(=O)c(=O)[nH]c12 | 193.2 | 193.1 | 190.9 | –
COc1cc(S(=O)(=O)O)c(C)cc1N=Nc1c(O)ccc2cc(S(=O)(=O)O)ccc12 | – | – | 214.8 | –
CS(=O)(=O)c1ccc([C@@H](CC2CCCC2)C(=O)Nc2cnccn2)cc1Cl | 207.9 | 205.5 | 202.7 | –
C[C@@H](Oc1ccc(CNC(=O)c2cccnc2Oc2ccc3c(c2)OCO3)c(F)c1)C(=O)O | 197.1 | 196.3 | 202.7 | –
Cc1c(C2(c3cc(Br)c(O)c(Br)c3C)c3ccccc3OS2(=O)=O)cc(Br)c(O)c1Br | – | – | 217.4 | –
O=C(NS(=O)(=O)/C=C/c1cccs1)c1ccc(F)cc1Br | 189 | – | 178 | –
N#Cc1ccc(N(CC(N)=O)CC(F)(F)F)cc1C(F)(F)F | – | – | 163.7 | –
NC(=O)N(O)[C@@H]1COc2cc(OCc3ccccc3)ccc21 | 165.5 | – | – | –
NC(=O)N(O)[C@@H]1C=C[C@H](Oc2cccc(Oc3ccc(F)cc3)c2)C1 | 191.1 | – | – | –
NC(=O)N1C(=O)C(C(=O)c2cc(Cl)cs2)c2cc(F)c(Cl)cc21 (stereo unspecified) | – | – | 173.7 | –
Nc1c(S(=O)(=O)O)cc(Br)c2c1C(=O)c1ccccc1C2=O | – | – | 169.4 | –
NCC1(Cc2noc(=O)[nH]2)CCCCC1 | – | 154 | 151.4 | –
O=C(NS(=O)(=O)/C=C/c1ccccc1)c1ccc(F)cc1Cl | 188.9 | – | 177.6 | –
O=C(O)C1=NN(c2ccc(S(=O)(=O)O)cc2)C(=O)C1 | – | – | 162.5 | –
O=[N+]([O-])c1ccc(C=Cc2ccc([N+](=O)[O-])cc2S(=O)(=O)O)c(S(=O)(=O)O)c1 | – | – | 182.4 | –
O=C(O)CCN(C1(C(=O)NO)CCCC1)S(=O)(=O)c1ccc(Oc2ccc(F)cc2)cc1 | 211 | – | 198.1 | –
O=C(NO)C1(NS(=O)(=O)c2ccc(Oc3ccc(F)cc3)cc2)CCOCC1 | 206.8 | – | 184.6 | –
O=C(O)C1(c2ccc3c(c2)OC[C@H](Cc2ccc(-c4ccccc4)cc2)[C@H]3O)CCCC1 | 202.9 | – | – | –
